Experimental data reported in patent EP0565593B1, “REDUCING PESTICIDAL INTERACTIONS IN CROPS” (priority 1990, dated 1992).
Read-outs that look alike come from different tables or passages of the source.

Columns and labels:
[1] = system: Corn; experiment: Greenhouse test Procedure VI: biocide and antidote in furrow, herbicide PPI in cover layer (Examples 43-47, 59-61; Tables 42-46, 58-60); assay type: in vivo; details: Example 43; Antidotes 1, 7, 12, 33
Text: This procedure describes interaction among herbicide, biocide and antidote when the herbicide is incorporated in a soil cover layer and the biocide and the antidote are applied in a soil furrow containing crop seed before emergence of the crop. The soil and seeding depth were described in Procedure IV. A first container was designated as an untreated control, a second container was designated as a herbicide control, a third container was designated as a herbicide + biocide control and a fourth container as a herbicide + biocide + antidote test container. The biocide and antidote were formulated as granules. The biocide was applied to the soil furrows of the third and fourth containers at an application rate of 1.1 mg of active compound per cm of row. The antidote was applied to the soil furrow of the fourth container at an application rate of 0.37 mg of active compound per cm of row. A measured amount of the herbicide dispersed or dissolved in acetone was applied to a measured quantity of soil. The quantity of soil treated with the herbicide was thoroughly mixed to incorporate the herbicide. Samples of this soil were used to cover the seed beds of the second, third and fourth containers. For each test series, the seed bed of the first container was likewise covered by a soil layer not treated with herbicide and without biocide or antidote in the soil furrow.
The containers were then placed on a bench in a greenhouse. Watering was by subirrigation plus overhead irrigation after the plants emerged. All treatments were run in duplicate. Plant response was observed according to Procedure IV. Variations in this procedure will be noted in the examples.
In continuing tests to evaluate the variations of this invention, a series of tests were conducted to determine the efficacy of the above safeners in Examples 39-42 to alleviate corn injury induced by the interaction of various additional commercial sulfonylurea herbicides with COUNTER 15G insecticide. In this example, the tests were conducted according to Procedure VI above. In modifications of that procedure, herbicides were applied to soil samples as acetone/water suspensions, incorporated by shaking in a closed container, with subsamples used to cover furrow-treated 10.2 cm pots. Pots were subirrigated followed by overhead misting on days 6-10.
This example was designed to test the safening effect of those above safeners used in this test series to relieve corn injury by negative synergism induced by interaction of COUNTER 15G and three imidazolinone herbicides, i.e., imazaquin and imazapyr (used in the POE tests in Example 41) and AC 263222 (a.i. in CADRE® herbicide). As differing from the tests in Example 41, this test was a PPI test according to Procedure VI described above. Observation of test results (Table 43) were taken thirteen 913) days after in-furrow PPI preparation.
This example describes PPI tests to evaluate said test safeners in this series with analogs of the sulfonamide herbicides tested under POE herbicide application procedures described in Example 42. In these tests, conducted according to Procedure VI described above, Herbicide Nos. 20, 22 and 24 were applied PPI with the insecticide and antidote. Observations of tests results were made thirteen days after PPI initiation.
An additional three (3) sulfonamide herbicide analogs were tested simultaneously and under the same conditions described in Example 45.
Another test of this invention involved the safening effects of the safeners in this series against negative synergy inducted by the interaction of COUNTER 15G and a sulfonylurea herbicide (OUST®), Herbicide No. 13, and PURSUIT, an imidazolinone herbicide, No. 6. Test conditions were the same as those in Examples 43-46. Other procedures for applying herbicidal formulations are as described in Example 42. […]

[2] = system: Corn; experiment: Greenhouse test Procedure II: herbicide, insecticide and antidote incorporated in cover layer (Example 4; Table 4); assay type: in vivo; details: 3 weeks
Experimental: (§1) Containers were filled and compacted with a fumigated silt loam top soil to a depth of about 1.3 cm from the top of the container. A first container was designated as an untreated control, a second container was designated as a herbicide control, and a third container was designated as a herbicide + antidote test container. Each of the containers was seeded with a crop species. A measured amount of herbicide dispersed or dissolved in acetone was applied to a measured quantity of soil. To this same quantity of soil treated with herbicide, there was added a measured amount of antidote dispersed or dissolved in acetone. The quantity of soil treated with the herbicide and antidote was thoroughly mixed to incorporate the herbicide and antidote in the soil uniformly. The seed bed in the third container of soil was covered with the soil treated with the herbicide and antidote and the container was leveled. For each test series, the seed beds of the first and second containers were likewise covered by soil layers. the cover layer of the first container was not treated with herbicide or antidote.
(§2) This procedure is the same as Procedure I, but modified in the manner that after incorporation of the chemicals (herbicide, antidote and insecticide), the containers with the covered seedbed were treated with an initial overhead irrigation equivalent to 0.6 cm rainfall, then subsequently sub-irrigated as required on greenhouse benches.
(§3) The procedure used in this test was Procedure No. 2 above. Formulations of herbicide, insecticide and antidote were applied via track sprayer sequentially onto cover layers, incorporated into the soil which was spread over seedbeds, then irrigated from above with 0.6 cm water. Observations were made three (3) weeks after treatment.

[3] = system: VELE (velvetleaf); experiment: Greenhouse test Procedure II (Example 4; Table 4); assay type: in vivo, Abutilon theophrasti; details: 3 weeks
Experimental: as §1, §2, §3

[4] = system: SJCA; experiment: Greenhouse test Procedure IV: herbicide, biocide and antidote PPI, weed SJCA (Examples 53-55; Tables 52-54); assay type: in vivo
Text: The test in this example paralleled that in Example 51, except the procedure was according to Procedure IV above and the herbicides used were No. 1 (MON-12000); No. 21 (XRD-498) and, again, No. 18 (PURSUIT); the biocide was, again, MOCAP®. Observations were taken thirteen (13) days after PPI treatment with biocide and antidote.
This test was identical to that in Example 52, except for use of a different biocide, DIAZINON (Biocide No. 5, a nematicide and soil insecticide).
This test was also identical to that in the preceding two examples, except that the biocide was malathion (No. 7, an insecticide).
This test was identical to the preceding ones, except the biocide was DPX-43898 (No. 6, active ingredient in FORTRESS® insecticide, a soil insecticide). Also, the observation time was fourteen (14) days after PPI initiation.

[5] = system: Corn
[6] = system: Velvetleaf (VELE); experiment: whole plant or invertebrate; assay type: in vivo, Abutilon theophrasti
[7] = Insecticide 2 3.36 + Herbicide 4 0.07 kg/Ha
[8] = Insecticide 2 3.36 + Herbicide 4 0.14 kg/Ha
[9] = Table 54, Biocide No. 6 alone 8.96 kg/Ha PPI, observed 14 days after PPI initiation
[10] = Insecticide 2 3.36 + Herbicide 5 0.07 kg/Ha
[11] = Insecticide 2 3.36 + Herbicide 5 0.14 kg/Ha
[12] = Table 52, Biocide No. 5 alone 8.96 kg/Ha PPI, observed 13 days after treatment
[13] = Insecticide 2 3.36 + Herbicide 6 0.07 kg/Ha
[14] = Insecticide 2 3.36 + Herbicide 6 0.14 kg/Ha
[15] = Table 53, Biocide No. 7 alone 8.96 kg/Ha PPI, observed 13 days after treatment

With `COc1nc(C)nc(NC(=O)NS(=O)(=O)c2ccccc2OCCCl)n1` [Herbicide No. 11, Benzenesulfonamide, 2-(2-chloroethoxy)-N-[[(4-methoxy-6-methyl-1,3,5-triazin-2-yl)amino]carbonyl]-, reference compound] the “safening of herbicide/COUNTER 15G corn injury by the antidotes” value [1] was “effectively reduced corn injury”.
“2-Thiophenecarboxylic acid, 3-[[[[(4,6-dimethoxy-1,3,5-triazin-2-yl)amino]carbonyl]amino]sulfonyl]-, methyl ester [Herbicide No. 4]” was tested, and the “% Injury Corn” value ([2]; Herbicide 4 0.07 kg/Ha) was 15%, the “% Injury Corn” value ([2]; Herbicide 4 0.14 kg/Ha) was 38% and the “% Injury Corn” value [2, 7] was 83%. For the same compound, the “% Injury Corn” value [2, 8] was 80%, the “% Injury VELE” value ([3]; Herbicide 4 0.07 kg/Ha) was 10% and the “% Injury VELE” value ([3]; Herbicide 4 0.14 kg/Ha) was 52%. For the same compound, the “% Injury VELE” value [3, 7] was 55% and the “% Injury VELE” value [3, 8] was 5%.
For `CCOP(=S)(OCC)OC(Cl)C(Cl)(Cl)Cl` (stereo not shown) [Biocide No. 6, O,O-Diethyl-O-1,2,2,2-tetrachloroethyl phosphorothioate, reference compound], the “% Inhibition SJCA” value [4, 9] was 0%, the “% Inhibition Corn” value [5, 9] was 0% and the “% Inhibition VELE” value [6, 9] was 0%.
For `COC(=O)c1ccccc1S(=O)(=O)NC(=O)Nc1nc(C)cc(C)n1` [Herbicide No. 13, reference compound], the “safening of herbicide/COUNTER 15G corn injury by the antidotes” value [1] was “limited to nil”.
`COC(=O)c1ccccc1CS(=O)(=O)NC(=O)Nc1nc(OC)cc(OC)n1` [Herbicide No. 14, Benzoic acid, 2-[[[[[(4,6-dimethoxy-2-pyrimidinyl)amino]carbonyl]amino]sulfonyl]methyl]-, methyl ester, reference compound] was tested, and the “safening of herbicide/COUNTER 15G corn injury by the antidotes” value [1] was “effectively reduced corn injury”.
With `COc1nc(C)nc(NC(=O)NS(=O)(=O)c2ccccc2Cl)n1` [Herbicide No. 12, Benzenesulfonamide, 2-chloro-N-[[(4-methoxy-6-methyl-1,3,5-triazin-2-yl)amino]carbonyl]-, reference compound] the “safening of herbicide/COUNTER 15G corn injury by the antidotes” value [1] was “effectively reduced corn injury”.
`CCOC(=O)c1ccccc1S(=O)(=O)NC(=O)Nc1nc(Cl)cc(OC)n1` [Herbicide No. 5, Benzoic acid, 2-[[[[(4-chloro-6-methoxy-2-pyrimidin-2-yl)amino]carbonyl]amino]sulfonyl]ethyl ester] was tested, and the “% Injury Corn” value ([2]; Herbicide 5 0.07 kg/Ha) was 88%, the “% Injury Corn” value ([2]; Herbicide 5 0.14 kg/Ha) was 92% and the “% Injury Corn” value [2, 10] was 95%. For the same compound, the “% Injury Corn” value [2, 11] was 98%, the “% Injury VELE” value ([3]; Herbicide 5 0.07 kg/Ha) was 57% and the “% Injury VELE” value ([3]; Herbicide 5 0.14 kg/Ha) was 77%. The “% Injury VELE” value [3, 10] was 83% and the “% Injury VELE” value [3, 11] was 70%.
For `CCOP(=S)(OCC)Oc1cc(C)nc(C(C)C)n1` [Biocide No. 5, O,O-Diethyl (-(2-isopropyl-4-methyl-6-pyrimidinyl phosphorothioate, reference compound], the “% Inhibition SJCA” value [4, 12] was 50%, the “% Inhibition Corn” value [5, 12] was 0% and the “% Inhibition VELE” value [6, 12] was 25%.
In the case of `CCc1cnc(C2=NC(C)(C(C)C)C(=O)N2)c(C(=O)O)c1` (stereo not shown) [Herbicide No. 6, 3-Pyridinecarboxylic acid, 2-[4,5-dihydro-4-methyl-4-(1-methylethyl)-5-oxo-1H-imidazol-2-yl]5-ethyl], the “% Injury Corn” value ([2]; Herbicide 6 0.07 kg/Ha) is reported as 2%, the “% Injury Corn” value ([2]; Herbicide 6 0.14 kg/Ha) is reported as 23% and the “% Injury Corn” value [2, 13] is reported as 65%. The “% Injury Corn” value [2, 14] was 43%, the “% Injury VELE” value ([3]; Herbicide 6 0.07 kg/Ha) was 33% and the “% Injury VELE” value ([3]; Herbicide 6 0.14 kg/Ha) was 32%. The “% Injury VELE” value [3, 13] was 30% and the “% Injury VELE” value [3, 14] was 20%.
`CCOC(=O)CC(SP(=S)(OC)OC)C(=O)OCC` (stereo not shown) [Biocide No. 7, O,O-Dimethyl phosphorothioate of diethyl mercaptosuccinate, reference compound] was tested, and the “% Inhibition SJCA” value [4, 15] was 0%, the “% Inhibition Corn” value [5, 15] was 0% and the “% Inhibition VELE” value [6, 15] was 0%.
